# Data from patent US8748496B2, “Methods of treatment of hyperuricemia and associated disease states” (Elan Pharmaceuticals, Inc., priority 2008, dated 2014).
# Test system: uric acid levels
# Assay: Multiple ascending dose study every twelve hours for seven days, uric acid in healthy elderly subjects
# Type: in vivo, human
# Details: for uric acid, Mean: N=6
# Description: A single-center, randomized, placebo-controlled, multiple ascending dose study evaluating a scyllo-inositol formulation was conducted in healthy elderly subjects. Approximately 32 healthy subjects (men and women) participated in […] consisting of 8 subjects each (i.e., 6 on active drug and 2 on placebo). Subjects received drug twice daily (BID) (every 12 hours) for 7 days. The dosage levels of the scyllo-inositol were 200 mg BID (400 mg/d total), 700 mg BID (1400 mg/d total), 1500 mg BID (3000 mg/d total) and 3000 mg BID (6000 mg/d total) given every 12 hours. Blood samples were collected from each subject on days 0, 4, 7, and 12.
# Scyllo-inositol 200 and 500 mg capsules were bovine spongiform encephalopathy (BSE)/transmissible spongiform encephalopathy (TSE)-free soft gelatin, white, opaque capsules and no excipient was used in the finished product. Capsules were supplied in 60-mL, oblong, white pharmaceutical high density polyethylene (HDPE) bottles with white caps. Each 60-mL bottle contained 30 capsules of 200 or 500 mg scyllo-inositol.
# The mean change from baseline to day 7 versus placebo was used to determine statistical significance. […] The ANCOVA looked at the change of uric acid levels in controls from starting levels of uric acid; the software used was SAS 9.1.3. […] The point estimate of 0.85 is a population parameter in dosed subjects.
# [1] = 200 mg BID oral 7 days group, Baseline (Day 0)
# [2] = 700 mg BID oral 7 days group, Baseline (Day 0)
# [3] = 1500 mg BID oral 7 days group, Baseline (Day 0)
# [4] = 1500 mg BID oral 7 days, Day 12
# [5] = 3000 mg BID oral 7 days group, Baseline (Day 0)
# [6] = 3000 mg BID oral 7 days, Day 12
smiles,measurement,setting,value
"O[C@H]1[C@H](O)[C@@H](O)[C@H](O)[C@@H](O)[C@@H]1O [scyllo-inositol, 1,2,3,4,5,6-cyclohexanehexyl, (1alpha,2beta,3alpha,4beta,5alpha,6beta)]","uric acid, Max",[1],458 micromole per liter
same,"uric acid, Median",[1],318.2 micromole per liter
same,"uric acid, Min",[1],149 micromole per liter
same,"uric acid, Mean",[1],316.2 micromole per liter
same,"uric acid, Max","200 mg BID oral 7 days, Day 4",410 micromole per liter
same,"uric acid, Max Change from Baseline","200 mg BID oral 7 days, Day 4",54 micromole per liter
same,"uric acid, Mean Change from Baseline","200 mg BID oral 7 days, Day 4",−7.9 micromole per liter
same,"uric acid, Median","200 mg BID oral 7 days, Day 4",330.1 micromole per liter
same,"uric acid, Median Change from Baseline","200 mg BID oral 7 days, Day 4",−11.9 micromole per liter
same,"uric acid, Min","200 mg BID oral 7 days, Day 4",143 micromole per liter
same,"uric acid, Min Change from Baseline","200 mg BID oral 7 days, Day 4",−48 micromole per liter
same,"uric acid, Mean","200 mg BID oral 7 days, Day 4",308.3 micromole per liter
same,"uric acid, Max","200 mg BID oral 7 days, Day 7",387 micromole per liter
same,"uric acid, Max Change from Baseline","200 mg BID oral 7 days, Day 7",18 micromole per liter
same,"uric acid, Mean Change from Baseline","200 mg BID oral 7 days, Day 7",−25.8 micromole per liter
same,"uric acid, Median","200 mg BID oral 7 days, Day 7",333.1 micromole per liter
same,"uric acid, Median Change from Baseline","200 mg BID oral 7 days, Day 7",−17.8 micromole per liter
same,"uric acid, Min","200 mg BID oral 7 days, Day 7",143 micromole per liter
same,"uric acid, Min Change from Baseline","200 mg BID oral 7 days, Day 7",−77 micromole per liter
same,"uric acid, Mean","200 mg BID oral 7 days, Day 7",290.5 micromole per liter
same,"uric acid, Max","200 mg BID oral 7 days, Day 12",476 micromole per liter
same,"uric acid, Max Change from Baseline","200 mg BID oral 7 days, Day 12",59 micromole per liter
same,"uric acid, Median","200 mg BID oral 7 days, Day 12",368.8 micromole per liter
same,"uric acid, Median Change from Baseline","200 mg BID oral 7 days, Day 12",26.8 micromole per liter
same,"uric acid, Min","200 mg BID oral 7 days, Day 12",184 micromole per liter
same,"uric acid, Min Change from Baseline","200 mg BID oral 7 days, Day 12",−12 micromole per liter
same,"uric acid, Mean","200 mg BID oral 7 days, Day 12",342.0 micromole per liter
same,"uric acid, Max",[2],410 micromole per liter
same,"uric acid, Median",[2],258.7 micromole per liter
same,"uric acid, Min",[2],161 micromole per liter
same,"uric acid, Mean",[2],269.6 micromole per liter
same,"uric acid, Max","700 mg BID oral 7 days, Day 4",351 micromole per liter
same,"uric acid, Max Change from Baseline","700 mg BID oral 7 days, Day 4",0 micromole per liter
same,"uric acid, Mean Change from Baseline","700 mg BID oral 7 days, Day 4",−51.5 micromole per liter
same,"uric acid, Median","700 mg BID oral 7 days, Day 4",175.5 micromole per liter
same,"uric acid, Median Change from Baseline","700 mg BID oral 7 days, Day 4",−62.5 micromole per liter
same,"uric acid, Min","700 mg BID oral 7 days, Day 4",143 micromole per liter
same,"uric acid, Min Change from Baseline","700 mg BID oral 7 days, Day 4",−101 micromole per liter
same,"uric acid, Mean","700 mg BID oral 7 days, Day 4",218.1 micromole per liter
same,"uric acid, Max","700 mg BID oral 7 days, Day 7",309 micromole per liter
same,"uric acid, Max Change from Baseline","700 mg BID oral 7 days, Day 7",−12 micromole per liter
same,"uric acid, Mean Change from Baseline","700 mg BID oral 7 days, Day 7",−70.4 micromole per liter
same,"uric acid, Median","700 mg BID oral 7 days, Day 7",169.5 micromole per liter
same,"uric acid, Median Change from Baseline","700 mg BID oral 7 days, Day 7",−83.3 micromole per liter
same,"uric acid, Min","700 mg BID oral 7 days, Day 7",125 micromole per liter
same,"uric acid, Min Change from Baseline","700 mg BID oral 7 days, Day 7",−107 micromole per liter
same,"uric acid, Mean","700 mg BID oral 7 days, Day 7",199.3 micromole per liter
same,"uric acid, Max","700 mg BID oral 7 days, Day 12",410 micromole per liter
same,"uric acid, Max Change from Baseline","700 mg BID oral 7 days, Day 12",30 micromole per liter
same,"uric acid, Mean Change from Baseline","700 mg BID oral 7 days, Day 12",−1.0 micromole per liter
same,"uric acid, Median","700 mg BID oral 7 days, Day 12",237.9 micromole per liter
same,"uric acid, Median Change from Baseline","700 mg BID oral 7 days, Day 12",3.0 micromole per liter
same,"uric acid, Min","700 mg BID oral 7 days, Day 12",167 micromole per liter
same,"uric acid, Min Change from Baseline","700 mg BID oral 7 days, Day 12",−54 micromole per liter
same,"uric acid, Mean","700 mg BID oral 7 days, Day 12",268.7 micromole per liter
same,"uric acid, Max",[3],434 micromole per liter
same,"uric acid, Median",[3],279.6 micromole per liter
same,"uric acid, Min",[3],220 micromole per liter
same,"uric acid, Mean",[3],303.3 micromole per liter
same,"uric acid, Max","1500 mg BID oral 7 days, Day 4",291 micromole per liter
same,"uric acid, Max Change from Baseline","1500 mg BID oral 7 days, Day 4",12 micromole per liter
same,"uric acid, Mean Change from Baseline","1500 mg BID oral 7 days, Day 4",−70.4 micromole per liter
same,"uric acid, Median","1500 mg BID oral 7 days, Day 4",237.9 micromole per liter
same,"uric acid, Median Change from Baseline","1500 mg BID oral 7 days, Day 4",−71.4 micromole per liter
same,"uric acid, Min","1500 mg BID oral 7 days, Day 4",155 micromole per liter
same,"uric acid, Min Change from Baseline","1500 mg BID oral 7 days, Day 4",−143 micromole per liter
same,"uric acid, Mean","1500 mg BID oral 7 days, Day 4",233.0 micromole per liter
same,"uric acid, Max","1500 mg BID oral 7 days, Day 7",256 micromole per liter
same,"uric acid, Max Change from Baseline","1500 mg BID oral 7 days, Day 7",−24 micromole per liter
same,"uric acid, Mean Change from Baseline","1500 mg BID oral 7 days, Day 7",−88.2 micromole per liter
same,"uric acid, Median","1500 mg BID oral 7 days, Day 7",229.0 micromole per liter
same,"uric acid, Median Change from Baseline","1500 mg BID oral 7 days, Day 7",−77.3 micromole per liter
same,"uric acid, Min","1500 mg BID oral 7 days, Day 7",155 micromole per liter
same,"uric acid, Min Change from Baseline","1500 mg BID oral 7 days, Day 7",−196 micromole per liter
same,"uric acid, Mean","1500 mg BID oral 7 days, Day 7",215.1 micromole per liter
same,"uric acid, Max",[4],399 micromole per liter
same,"uric acid, Max Change from Baseline",[4],18 micromole per liter
same,"uric acid, Mean Change from Baseline",[4],−27.8 micromole per liter
same,"uric acid, Median",[4],279.6 micromole per liter
same,"uric acid, Median Change from Baseline",[4],−29.7 micromole per liter
same,"uric acid, Min",[4],196 micromole per liter
same,"uric acid, Min Change from Baseline",[4],−65 micromole per liter
same,"uric acid, Mean",[4],275.6 micromole per liter
same,"uric acid, Max",[5],363 micromole per liter
same,"uric acid, Median",[5],300.4 micromole per liter
same,"uric acid, Min",[5],226 micromole per liter
same,"uric acid, Mean",[5],299.4 micromole per liter
same,"uric acid, Max","3000 mg BID oral 7 days, Day 4",262 micromole per liter
same,"uric acid, Max Change from Baseline","3000 mg BID oral 7 days, Day 4",−59 micromole per liter
same,"uric acid, Mean Change from Baseline","3000 mg BID oral 7 days, Day 4",−83.3 micromole per liter
same,"uric acid, Median","3000 mg BID oral 7 days, Day 4",226.0 micromole per liter
same,"uric acid, Median Change from Baseline","3000 mg BID oral 7 days, Day 4",−83.3 micromole per liter
same,"uric acid, Min","3000 mg BID oral 7 days, Day 4",161 micromole per liter
same,"uric acid, Min Change from Baseline","3000 mg BID oral 7 days, Day 4",−107 micromole per liter
same,"uric acid, Mean","3000 mg BID oral 7 days, Day 4",216.1 micromole per liter
same,"uric acid, Max","3000 mg BID oral 7 days, Day 7",268 micromole per liter
same,"uric acid, Max Change from Baseline","3000 mg BID oral 7 days, Day 7",−71 micromole per liter
same,"uric acid, Mean Change from Baseline","3000 mg BID oral 7 days, Day 7",−85.3 micromole per liter
same,"uric acid, Median","3000 mg BID oral 7 days, Day 7",214.1 micromole per liter
same,"uric acid, Median Change from Baseline","3000 mg BID oral 7 days, Day 7",−74.4 micromole per liter
same,"uric acid, Min","3000 mg BID oral 7 days, Day 7",149 micromole per liter
same,"uric acid, Min Change from Baseline","3000 mg BID oral 7 days, Day 7",−131 micromole per liter
same,"uric acid, Mean","3000 mg BID oral 7 days, Day 7",214.1 micromole per liter
same,"uric acid, Max",[6],345 micromole per liter
same,"uric acid, Max Change from Baseline",[6],18 micromole per liter
same,"uric acid, Mean Change from Baseline",[6],−29.7 micromole per liter
same,"uric acid, Median",[6],270.6 micromole per liter
same,"uric acid, Median Change from Baseline",[6],−23.8 micromole per liter
same,"uric acid, Min",[6],208 micromole per liter
same,"uric acid, Min Change from Baseline",[6],−83 micromole per liter
same,"uric acid, Mean",[6],269.6 micromole per liter
same,"decreases from baseline in uric acid, dose-response","200-3000 mg BID oral 7 days, Day 7",a dose-response effect was not as apparent
same,"mean uric acid levels, relation to dose","200-3000 mg BID oral 7 days, Days 4 and 7, Day 12","dose-related decrease in mean uric acid levels was observed at Days 4 and 7, which partially resolved by Day 12"
same,"mean difference (PLC-TRT) in change from baseline to day 7, point estimate","scyllo-inositol treated versus placebo, Day 7, ANCOVA",0.85
